According to patent publication US20250145589A1, “PYRIDINE DERIVATIVE AND USE THEREOF” (SICHUAN HUIYU PHARMACEUTICAL CO., LTD., priority 2021, published 2025):
Like-named read-outs stand apart in the source and are kept apart here.

Key:
[1] = tested on: MIA PaCa-2-AMGR drug-resistant cell line; assay: MIA PaCa-2-AMGR drug-resistant cell proliferation inhibitory activity test; type: cell-based; conditions: MIA PaCa-2-AMGR drug-resistant cells, 3 days incubation, CellTiter-Glo
Method in brief: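 MIA PaCa-2 line made resistant by stepwise AMG510 exposure up to 1 μM. Cells seeded at 4×10^3/well overnight, then treated with 8 concentrations (5-fold dilutions) for 3 days at 37° C, 5% CO2 in DMEM with 10% FBS + 2.5% horse serum. Viability by CellTiter-Glo luminescence; IC50 versus no-inhibitor control.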

PI3Kα = PI3Kα (Homo sapiens (Human), UniProt P42336); assay: Inhibition of PI3Kα efficacy assay (ADP-Glo kinase assay); type: biochemical; conditions: read-out: PI3Kα inhibitory activity (IC50)
Method in brief: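 ADP-Glo luminescent detection of ADP from PI3Kα acting on PI substrate with ATP, 60 min at RT; compounds in 8-point five-fold serial dilution from 2 mM DMSO stock. IC50 from four-parameter variable-slope fit.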

PI3Kα, sequence (P42336 whole entry): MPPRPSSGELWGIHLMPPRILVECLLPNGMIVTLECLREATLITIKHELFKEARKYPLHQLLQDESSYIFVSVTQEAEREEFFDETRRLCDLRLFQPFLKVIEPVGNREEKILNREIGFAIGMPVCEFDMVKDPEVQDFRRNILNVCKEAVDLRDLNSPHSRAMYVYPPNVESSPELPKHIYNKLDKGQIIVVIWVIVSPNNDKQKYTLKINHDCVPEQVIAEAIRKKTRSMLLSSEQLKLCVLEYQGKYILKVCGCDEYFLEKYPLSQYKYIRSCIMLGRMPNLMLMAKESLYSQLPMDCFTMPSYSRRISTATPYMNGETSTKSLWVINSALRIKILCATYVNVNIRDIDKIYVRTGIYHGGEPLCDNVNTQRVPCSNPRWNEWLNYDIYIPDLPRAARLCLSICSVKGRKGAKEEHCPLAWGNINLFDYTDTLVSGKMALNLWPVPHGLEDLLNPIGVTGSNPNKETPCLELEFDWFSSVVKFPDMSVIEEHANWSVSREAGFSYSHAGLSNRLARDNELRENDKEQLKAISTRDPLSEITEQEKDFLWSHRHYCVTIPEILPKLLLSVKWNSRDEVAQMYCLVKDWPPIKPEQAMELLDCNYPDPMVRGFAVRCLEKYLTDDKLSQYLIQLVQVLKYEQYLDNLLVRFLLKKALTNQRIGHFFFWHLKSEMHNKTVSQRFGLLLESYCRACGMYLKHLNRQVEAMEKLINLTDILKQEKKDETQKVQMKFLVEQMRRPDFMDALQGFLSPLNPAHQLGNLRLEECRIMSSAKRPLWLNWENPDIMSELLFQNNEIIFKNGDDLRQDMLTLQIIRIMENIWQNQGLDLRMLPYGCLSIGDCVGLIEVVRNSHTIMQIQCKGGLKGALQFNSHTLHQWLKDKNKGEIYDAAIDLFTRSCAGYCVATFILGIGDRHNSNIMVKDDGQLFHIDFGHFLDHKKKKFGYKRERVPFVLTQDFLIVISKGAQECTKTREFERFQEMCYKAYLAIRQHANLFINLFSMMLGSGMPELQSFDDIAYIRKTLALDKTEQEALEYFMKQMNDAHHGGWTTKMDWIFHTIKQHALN
PI3Kα, sequence (P27986 whole entry partner): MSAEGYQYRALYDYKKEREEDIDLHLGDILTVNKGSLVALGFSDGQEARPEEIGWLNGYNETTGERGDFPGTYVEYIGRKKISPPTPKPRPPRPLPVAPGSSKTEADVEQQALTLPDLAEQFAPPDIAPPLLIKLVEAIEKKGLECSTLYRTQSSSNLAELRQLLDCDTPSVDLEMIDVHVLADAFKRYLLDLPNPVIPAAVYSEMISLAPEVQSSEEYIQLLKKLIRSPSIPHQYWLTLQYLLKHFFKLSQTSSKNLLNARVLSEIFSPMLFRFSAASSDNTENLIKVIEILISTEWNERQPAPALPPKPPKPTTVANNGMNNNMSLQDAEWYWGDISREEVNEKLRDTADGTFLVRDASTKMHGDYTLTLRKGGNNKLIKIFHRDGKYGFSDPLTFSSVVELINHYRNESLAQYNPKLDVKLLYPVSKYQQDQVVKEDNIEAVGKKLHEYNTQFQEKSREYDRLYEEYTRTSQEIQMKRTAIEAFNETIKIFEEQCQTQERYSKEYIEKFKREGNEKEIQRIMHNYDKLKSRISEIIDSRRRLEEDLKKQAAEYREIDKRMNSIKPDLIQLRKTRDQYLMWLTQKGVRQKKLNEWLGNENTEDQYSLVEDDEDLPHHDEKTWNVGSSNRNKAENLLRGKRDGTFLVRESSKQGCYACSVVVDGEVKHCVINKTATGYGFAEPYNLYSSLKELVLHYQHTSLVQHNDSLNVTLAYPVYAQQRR

| SMILES | IC50 ([1]; 72 h) [nM] | IC50 (PI3Kα; Table 1) [nM] | IC50 (PI3Kα) [nM] | IC50 [1] [nM] | IC50 (PI3Kα; Table 2) [nM] |
| --- | --- | --- | --- | --- | --- |
| COc1ncc(-c2ccc3ncnc(N4CCN(C(=O)/C=C/C(C)=O)CC4)c3c2)cc1NS(=O)(=O)c1ccc(F)cc1F [Example 6, (E)-2,4-difluoro-N-(2-methoxy-5-(4-(4-(4-oxopent-2-enoyl)piperazin-1-yl)quinazoline-6-yl)pyridin-3-yl)benzenesulfonamide] | 49.2 |  |  |  |  |
| C=CC(=O)N1CCN(c2ncnc3ccc(-c4cnc(OC)c(NS(=O)(=O)c5ccc(F)cc5F)c4)cc23)[C@@H](C)C1 [Example 7, (S)—N-(5-(4-(4-acryloyl-2-methylpiperazin-1-yl)quinazolin-6-yl)-2-methoxypyridin-3-yl)-2,4-difluorobenzenesulfonamide] | 222 | 1.4 |  |  |  |
| COc1ncc(-c2ccc3ncnc(N4CCN(C(=O)/C=C/n5ccnn5)CC4)c3c2)cc1NS(=O)(=O)c1ccc(F)cc1F [Example 10, (E)-N-(5-(4-(4-(3-(1H-1,2,3-triazol-1-yl)acryloyl)piperazin-1-yl)quinazolin-6-yl)-2-methoxypyridin-3-yl)-2,4-difluorobenzenesulfonamide] | 226 | 0.44 |  |  |  |
| COc1ncc(-c2ccc3ncnc(N4C[C@@H](C)N(C(=O)/C=C/C(C)=O)C[C@@H]4C)c3c2)cc1NS(=O)(=O)c1ccc(F)cc1F [Example 15, N-(5-(4-((2S,5R)-2,5-dimethyl-4-((E)-4-oxopent-2-enoyl)piperazin-1-yl)quinazolin-6-yl)-2-methoxypyridin-3-yl)-2,4-difluorobenzenesulfonamide] | 243 | 10.2 |  |  |  |
| CCCC(=O)/C=C/C(=O)N1CCN(c2ncnc3ccc(-c4cnc(OC)c(NS(=O)(=O)c5ccc(F)cc5F)c4)cc23)CC1 [Example 17, (E)-2,4-difluoro-N-(2-methoxy-5-(4-(4-(4-oxohept-2-enoyl)piperazin-1-yl)quinazolin-6-yl)pyridin-3-yl)benzenesulfonamide] | 106 | 2.3 |  |  |  |
| COc1ncc(-c2ccc3ncnc(N4CCC5(CC4)CN(C(=O)/C=C/C(C)=O)C5)c3c2)cc1NS(=O)(=O)c1ccc(F)cc1F [Example 20, (E)-2,4-difluoro-N-(2-methoxy-5-(4-(2-(4-oxopent-2-enoyl)-2,7-diazaspiro[3.5]nonan-7-yl)quinazolin-6-yl)pyridin-3-yl)benzenesulfonamide] | 111 | 7.4 |  |  |  |
| COc1ncc(-c2ccc3ncnc(N4CCN(C(=O)/C=C/C(C)=O)CC4)c3c2)cc1NS(=O)(=O)c1c(F)cccc1F [Example 22, (E)-2,6-difluoro-N-(2-methoxy-5-(4-(4-(4-oxopent-2-enoyl)piperazin-1-yl)quinazolin-6-yl)pyridin-3-yl)benzenesulfonamide] | 76.7 | 11.6 |  |  |  |
| COc1ncc(-c2ccc3ncnc(N4CCC5(CN(C(=O)/C=C/C(C)=O)C5)C4)c3c2)cc1NS(=O)(=O)c1c(F)cccc1F [Example 42] |  |  | 1.5 | 185 |  |
| COc1ncc(-c2ccc3ncnc(N4CCN(C(=O)/C=C/C(C)=O)C[C@@H]4C)c3c2)cc1NS(=O)(=O)c1c(F)cccc1F [Example 46, (S,E)-2,6-difluoro-N-(2-methoxy-5-(4-(2-methyl-4-(4-oxopent-2-enoyl)piperazin-1-yl)quinazolin-6-yl)pyridin-3-yl) benzenesulfonamide] | 77.4 |  |  |  | 1.7 |
| COc1ncc(-c2ccc3ncnc(N4CCC5(CC4)CN(C(=O)/C=C/C(C)=O)C5)c3c2)cc1NS(=O)(=O)c1c(F)cccc1F [Example 49, (E)-2,6-difluoro-N-(2-methoxy-5-(4-(2-(4-oxopent-2-enoyl)-2,7-diazaspiro[3.5]nonan-7-yl)quinazolin-6-yl)pyridin-3-yl) benzenesulfonamide] | 62.4 |  |  |  | 2.6 |
| COc1ncc(-c2ccc3ncnc(N4C[C@@H](C)N(C(=O)/C=C/C(C)=O)C[C@@H]4C)c3c2)cc1NS(=O)(=O)c1c(F)cccc1F [Example 51, N-(5-(4-((2S,5R)-2,5-dimethyl-4-((E)-4-oxopent-2-enoyl)piperazin-1-yl)quinazolin-6-yl)-2-methoxypyridin-3-yl)-2,6-difluorobenzene-sulfonamide] | 181 |  |  |  | 5.6 |
| COc1ncc(-c2ccc3ncnc(N4CCN(C5CN(C(=O)/C=C/C(C)=O)C5)CC4)c3c2)cc1NS(=O)(=O)c1ccc(F)cc1F [Example 56, (E)-2,4-difluoro-N-(2-methoxy-5-(4-(4-(1-(4-oxopent-2-enoyl)azetidin-3-yl)piperazin-1-yl)quinazolin-6-yl)pyridin-3-yl)benzenesulfon-amide] | 116 |  |  |  | 4.4 |
| COc1ncc(-c2ccc3ncnc(N4CCC5(CC=CC5=O)CC4)c3c2)cc1NS(=O)(=O)c1ccc(F)cc1F [Example 70, 2,4-difluoro-N-(2-methoxy-5-(4-(1-oxo-8-azaspiro[4,5]dec-2-en-8-yl)quinazolin-6-yl)pyridin-3-yl)benzenesulfonamide] | 139 |  |  |  | 8.8 |
| COc1ncc(-c2ccc3ncnc(N4CCN(C(=O)/C=C/C(C)=O)CC4)c3c2)cc1NS(=O)(=O)c1cccc(F)c1F [Example 90, (E)-2,3-difluoro-N-(2-methoxy-5-(4-(4-(4-oxopent-2-enoyl)piperazin-1-yl)quinazolin-6-yl)pyridin-3-yl)benzenesulfonamide] | 106 |  |  |  | 4 |
| COc1ncc(-c2ccc3ncnc(N4CCN(C(=O)/C=C/C(C)=O)CC4)c3c2)cc1NS(=O)(=O)c1ccccc1F [Example 91, (E)-2-fluoro-N-(2-methoxy-5-(4-(4-(4-oxopent-2-enoyl)piperazin-1-yl)quinazolin-6-yl)pyridin-3-yl)benzenesulfonamide] | 79.8 |  |  |  | 2.6 |
| COc1ncc(-c2ccc3ncnc(N4CCN(C(=O)/C=C/C(C)=O)CC4)c3c2)cc1NS(=O)(=O)c1ccc(F)cc1 [Example 92, (E)-4-fluoro-N-(2-methoxy-5-(4-(4-(4-oxopent-2-enoyl)piperazin-1-yl)quinazolin-6-yl)pyridin-3-yl)benzenesulfonamide] | 56.9 |  |  |  | 6.4 |
| COc1ncc(-c2ccc3ncnc(N4CCN(C(=O)/C=C/C(C)=O)CC4)c3c2)cc1NS(=O)(=O)c1ccccc1C [Example 93, (E)-N-(2-methoxy-5-(4-(4-(4-oxopent-2-enoyl)piperazin-1-yl)quinazolin-6-yl)pyridin-3-yl)-2-methylbenzenesulfonamide] | 114 |  |  |  | 6 |
| COc1ncc(-c2ccc3ncnc(N4CCN(C(=O)/C=C/C(C)=O)CC4)c3c2)cc1NS(=O)(=O)c1cc(F)ccc1F [Example 94, (E)-2,5-difluoro-N-(2-methoxy-5-(4-(4-(4-oxopent-2-enoyl)piperazin-1-yl)quinazolin-6-yl)pyridin-3-yl)benzenesulfonamide] | 126 |  |  |  | 11 |
| COc1ncc(-c2ccc3ncnc(N4CCN(C(=O)/C=C/C(C)=O)CC4)c3c2)cc1NS(=O)(=O)c1c(F)cc(F)cc1F [Example 99, (E)-2,4,6-trifluoro-N-(2-methoxy-5-(4-(4-(4-oxopent-2-enoyl)piperazin-1-yl)quinazolin-6-yl)pyridin-3-yl)benzenesulfonamide] | 72.9 |  |  |  | 6 |
| COc1ncc(-c2ccc3ncnc(N4CCC5(CC4)CN(C(=O)/C=C/C(C)=O)C5)c3c2)cc1NS(=O)(=O)c1c(F)cc(F)cc1F [Example 101, (E)-2,4,6-trifluoro-N-(2-methoxy-5-(4-(2-(4-oxopent-2-enoyl)-2,7-diazaspiro[3.5]nonan-7-yl)quinazolin-6-yl)pyridin-3-yl)benzenesulfonamide] | 35.9 |  |  |  | 9.9 |
| COc1ncc(-c2ccc3ncnc(N4CCN(C(=O)/C=C/C(C)=O)CC4)c3c2)cc1NS(=O)(=O)c1c(F)cncc1F [Example 102, (E)-3,5-difluoro-N-(2-methoxy-5-(4-(4-(4-oxopent-2-enoyl)piperazin-1-yl)quinazolin-6-yl)pyridin-3-yl)pyridine-4-sulfonamide] | 908 |  |  |  | 1.2 |
| CCOc1ncc(-c2ccc3ncnc(N4CCN(C(=O)/C=C/C(C)=O)CC4)c3c2)cc1NS(=O)(=O)c1ccc(F)cc1F [Example 109, (E)-N-(2-ethoxy-5-(4-(4-(4-oxopent-2-enoyl)piperazin-1-yl)quinazolin-6-yl)pyridin-3-yl)-2,4-difluorobenzenesulfonamide] | 111 |  |  |  | 3.5 |
| COc1ncc(-c2ccc3ncnc(N4CCN(C(=O)/C=C/C(C)=O)CC4)c3c2)cc1NS(=O)(=O)c1ccc(C)cc1F [Example 111] |  |  |  | 90.1 | 8.8 |
| COc1ncc(-c2ccc3ncnc(N4CCN(C(=O)/C=C/C(C)=O)[C@@H](CC#N)C4)c3c2)cc1NS(=O)(=O)c1c(F)cccc1F [Example 116, (S,E)-N-(5-(4-(3-(cyanomethyl)-4-(4-oxopent-2-enoyl)piperazin-1-yl)quinazolin-6-yl)-2-methoxypyridin-3-yl)-2,6-difluorobenzenesulfonamide] | 462 |  |  |  | 1.8 |
| COc1ncc(-c2ccc3ncnc(N4CCN(C(=O)/C=C/C(C)=O)CC4)c3c2)cc1NS(=O)(=O)c1c(F)cccc1C#N [Example 122, (E)-2-cyano-6-fluoro-N-(2-methoxy-5-(4-(4-(4-oxopent-2-enoyl)piperazin-1-yl)quinazolin-6-yl)pyridin-3-yl)benzenesulfonamide] | 273 |  |  |  | 8.1 |
| [2H]C([2H])([2H])Oc1ncc(-c2ccc3ncnc(N4CCN(C(=O)/C=C/C(C)=O)CC4)c3c2)cc1NS(=O)(=O)c1ccc(F)cc1F [Example 191, (E)-2,4-difluoro-N-(2-(methoxy-d3)-5-(4-(4-(4-oxopent-2-enoyl)piperazin-1-yl)quinazolin-6-yl)pyridin-3-yl)benzene-sulfonamide] | 40.8 |  |  |  |  |
